Like-named read-outs stand apart in the source and are kept apart here.
Tests used:
Hirsutella rhossiliensis [1] = conditions: for Growth rate mm-in-diam, on agar: named vitamin excluded from medium with all other vitamins; for Growth rate mm-in-diam, on agar / Sporulation 10^3/cm^2, on agar / growth in liquit culture (visual rating): 5 weeks; for Spore germination %, on agar / Sporulation 10^3/cm^2, on agar / growth in liquit culture (visual rating): named vitamin excluded
Hirsutella rhossiliensis [2] = test: Effect of nitrogen source on growth, sporulation and spore germination; conditions: for Growth mm-in-diam, on agar: nitrogen source 0.3296 g/L nitrogen
[3] = nitrogen source, isolate ATCC46487
[4] = nitrogen source, isolate JA16-1
[5] = nitrogen source, isolate OWVT-1

Compound	Growth rate mm-in-diam, on agar (Hirsutella rhossiliensis [1]; isolate ATCC46487)	Growth rate mm-in-diam, on agar (Hirsutella rhossiliensis [1]; isolate JA16-1)	Growth rate mm-in-diam, on agar (Hirsutella rhossiliensis [1]; isolate OWVT-1)	Spore germination %, on agar (Hirsutella rhossiliensis [1]; isolate ATCC46487)	Sporulation 10^3/cm^2, on agar (Hirsutella rhossiliensis [1]; isolate ATCC46487)	Spore germination %, on agar (Hirsutella rhossiliensis [1]; isolate JA16-1)	Sporulation 10^3/cm^2, on agar (Hirsutella rhossiliensis [1]; isolate JA16-1)	growth in liquit culture (visual rating) (Hirsutella rhossiliensis [1]; isolate JA16-1)	Spore germination %, on agar (Hirsutella rhossiliensis [1]; isolate OWVT-1)	Sporulation 10^3/cm^2, on agar (Hirsutella rhossiliensis [1]; isolate OWVT-1)	growth in liquit culture (visual rating) (Hirsutella rhossiliensis [1]; isolate ATCC46487)	growth in liquit culture (visual rating) (Hirsutella rhossiliensis [1]; isolate OWVT-1)	Growth mm-in-diam, on agar (Hirsutella rhossiliensis [2]; isolate ATCC46487, 5 weeks)	Growth mm-in-diam, on agar (Hirsutella rhossiliensis [2]; isolate JA16-1, 5 weeks)	Growth mm-in-diam, on agar (Hirsutella rhossiliensis [2]; isolate OWVT-1, 5 weeks)	Spore germination %, on agar (Hirsutella rhossiliensis [2]; [3])	growth in liquit culture (visual rating) (Hirsutella rhossiliensis [2]; nitrogen source, isolate ATCC46487, 5 weeks)	Spore germination %, on agar (Hirsutella rhossiliensis [2]; [4])	Spore germination %, on agar (Hirsutella rhossiliensis [2]; [5])	Sporulation 10^3/cm^2, on agar (Hirsutella rhossiliensis [2]; nitrogen source, isolate OWVT-1, 5 weeks)
O=C(O)c1cccnc1 [Nicotinic acid]	40.5 mm-in-diam	20.0 mm-in-diam	27.7 mm-in-diam	77.8%	30.1 10^3/cm^2	94.4%	12.2 10^3/cm^2	I	57.8%	10.7 10^3/cm^2	–	–	–	–	–	–	–	–	–	–
Cc1ncc(CO)c(CO)c1O [Pyridoxine (VB6)]	40.5 mm-in-diam	17.2 mm-in-diam	29.5 mm-in-diam	74.4%	31.1 10^3/cm^2	90.0%	16.5 10^3/cm^2	I	50.0%	13.0 10^3/cm^2	III (III = hyphae growth or colonies form a pellet, less than 2.5 ml)	–	–	–	–	–	–	–	–	–
Cc1cc2nc3c(=O)[nH]c(=O)nc-3n(C[C@H](O)[C@H](O)[C@H](O)CO)c2cc1C [Riboflavin, UPS (VB2)]	41.0 mm-in-diam	20.2 mm-in-diam	30.2 mm-in-diam	91.1%	30.6 10^3/cm^2	85.6%	13.2 10^3/cm^2	I	60.0%	11.1 10^3/cm^2	–	I	–	–	–	–	–	–	–	–
Cc1ncc(C[n+]2csc(CCO)c2C)c(N)n1 [Thiamine (VB1)]	38.5 mm-in-diam	20.3 mm-in-diam	24.7 mm-in-diam	75.6%	30.1 10^3/cm^2	91.1%	30.4 10^3/cm^2	–	58.9%	15.7 10^3/cm^2	–	–	–	–	–	–	–	–	–	–
NC(N)=O [Urea]	–	–	–	–	–	–	–	–	–	–	–	–	43.5 mm-in-diam	14.0 mm-in-diam	16.7 mm-in-diam	91.1%	IV (IV = the pellet diameter larger than 1 cm, but the total volume distribution less than 5 ml)	85.6%	64.4%	–
O=C(O)CCCC[C@@H]1SC[C@@H]2NC(=O)N[C@@H]21 [d-Biotin (V.H)]	39.7 mm-in-diam	16.3 mm-in-diam	27.7 mm-in-diam	80.0%	29.5 10^3/cm^2	90.0%	14.1 10^3/cm^2	I	50.0%	11.7 10^3/cm^2	–	–	–	–	–	–	–	–	–	–
O[C@H]1[C@H](O)[C@@H](O)[C@H](O)[C@@H](O)[C@H]1O [myo-inositol]	40.8 mm-in-diam	18.3 mm-in-diam	31.5 mm-in-diam	72.2%	41.9 10^3/cm^2	84.4%	16.7 10^3/cm^2	I	64.4%	8.3 10^3/cm^2	–	–	–	–	–	–	–	–	–	–
Nc1ccc(C(=O)O)cc1 [p-Amino-benzoic acid (PABA)]	41.5 mm-in-diam	16.7 mm-in-diam	28.3 mm-in-diam	82.2%	29.9 10^3/cm^2	84.4%	35.1 10^3/cm^2	I	51.1%	14.2 10^3/cm^2	–	–	–	–	–	–	–	–	–	–
Casein	–	–	–	–	–	–	–	–	–	–	–	–	–	–	23.0 mm-in-diam	96.7%	–	90.0%	44.4%	43.6 10^3/cm^2

Reference: patent US7384629B2, “Biological control of nematodes with Hirsutella minnesotensis” (Regents of the University of Minnesota, priority 2000, dated 2008)
